We go through 2 compounds from patent US20230140972A1, “GLYCEROL GLUCOSIDE-BASED COMPOUND AND COMPOSITION COMPRISING SAME FOR ULTRAVIOLET LIGHT SHIELD OR ANTI-INFLAMMATION” (ATHENA CO., LTD., priority 2020, published 2023).

Values joined by “and” are separate entries in the source; they are usually repeats but may differ in a detail not shown here. Equal entries are not always repeated.

Data set [1] concerns PGE2 production in RAW264.7 cells. Description: PGE2 production inhibition using ELISA assay. In kind it is cell-based, mouse. The settings on record: LPS 10 ng/mL. As for the experimental part: A PGE2 production inhibition ability of the sample in RAW264.7 cells was evaluated using a PGE2 ELISA assay.
Specifically, subcultured RAW264.7 cells were aliquoted into a 6-well dish at 1.5×10^6 cells/well and cultured for 24 hours at 37° C. in an incubator containing 5% carbon dioxide, and then a culture media was replaced with a serum-free media. Then, each sample was diluted by concentration and treated onto the cells with LPS (final 10 ng/mL). After culturing for 24 hours, the cell culture medium was recovered and a PGE2 ELISA assay was performed.
100 μL of each of a standard solution and a cell culture solution were put into each well, and then 50 μL of PGE2 conjugate and 50 μL of PGE2 antibody were sequentially added and reacted at room temperature for 2 hours. Then, the reaction solution was removed from each well, washing is performed with a wash buffer, 200 μL of a substrate solution was then added, and reacted at room temperature for 45 minutes. Then, 50 μL of a stop solution was added and an absorbance was measured at 405 and 570 nm. Dexamethasone was used as a positive control group. After the test was conducted once, an amount of PGE2 production was calculated by substituting the absorbance value into a PGE2 standard solution calibration curve, and the PGE2 production inhibition rate (%) was calculated using Equation 5 below and expressed as the mean±standard deviation.

The test system of a further data set is p-IκB. Description: Western blot of p-IκB protein expression. The settings on record: RAW264.7 cells, LPS, 15 minutes, 100 ppm; untreated = 100, negative control 390.06. In kind it is cell-based, mouse. As for the experimental part: (§1) A western blot was performed as follows to observe p-IKK, p-IκB and p-NF-κB protein expression abilities of the glycerol glucoside-based compound sample (EPS-S).
(§2) Specifically, the subcultured mouse-derived macrophage line, RAW264.7 cells, were aliquoted in a 60 mm dish at 1.5×10^6 cells, and cultured for 24 hours at 37° C. in an incubator containing 5% carbon dioxide, and then a culture media was replaced with a serum-free media. Then, the glycerol glucoside-based compound sample (EPS-S) was diluted by concentration and treated onto the cells with LPS (final 1 μg/mL). After culturing for 15 minutes, protein was lysed (lysis) to recover cytoplasmic and nuclear extracts, and proteins were separated by size through SDS-PAGE. After transferring the protein to a membrane through a transfer, a primary antibody was attached thereto and reacted at 4° C. overnight. After the primary reaction, a secondary antibody was attached thereto, and reacted at room temperature for 1 hour, an ECL solution was sprayed on the entire surface, and a band image was obtained through a bioimage analyzer. After obtaining a band intensity of each band through Image J, normalization was performed using β-acitn and substituted in Equation 7 below to obtain the expression rate of p-IKK, p-IκB and p-NF-κB proteins in the treated sample group compared to the untreated group.
In general terms: In western blotting, separated proteins are transferred to a membrane and probed.

The test system of another data set is p-IKK. Kind of data set: Western blot of p-IKK protein expression. In kind it is cell-based, mouse. The settings on record: RAW264.7 cells, LPS, 15 minutes, 100 ppm; untreated = 100, negative control 1001.95. As for the experimental part:
as §1, §2

For the next data set, the system named is p-NF-κB. Kind of data set: Western blot of p-NF-κB protein expression. It is filed as cell-based, mouse. The settings on record: RAW264.7 cells, LPS, 15 minutes, 100 ppm; untreated = 100, negative control 222.25. As for the experimental part:
as §1, §2

Data set [2] relates to NO production in LPS-treated RAW264.7 cells. Description: Nitric oxide (NO) production inhibition, non-enzymatic method (Griess). In kind it is cell-based. The settings on record: Mus musculus, LPS 1 μg/mL, read-out: NO production inhibition rate. As for the experimental part: An NO assay was performed to evaluate the nitric oxide (NO) production inhibition ability of the glycerol glucoside-based compound sample (EPS-S).
Specifically, subcultured RAW264.7 cells were aliquoted in a 96-well plate at 1×10^5 cells/well, and cultured for 24 hours at 37° C. in an incubator containing 5% carbon dioxide, and then, a culture media was replaced with a serum-free media. Then, each sample was diluted by concentration, treated onto the cell with LPS (final 1 μg/mL), and after culturing for 24 hours, the cell culture medium and a Griess reagent were reacted, and an absorbance was then measured at 540 nm with a microplate reader. Dexamethasone was used as a positive control group. After the test was conducted once, each absorbance value was substituted into Equation 2 below to obtain the NO production inhibition rate (%), and it was expressed as the mean±standard deviation.

The subject of a further data set is RAW264.7 cells. Kind of data set: Cell viability measurement using MTT assay. The settings on record: vs untreated group. In kind it is cell-based, mouse. As for the experimental part: In order to evaluate a cell viability of the glycerol glucoside-based compound sample (EPS-S), an MTT assay was performed.
Specifically, subcultured RAW264.7 cells and HDF cells were aliquoted into a 96-well plate at 1×10^5, respectively, and cultured for 24 hours at 37° C. in an incubator containing 5% carbon dioxide, and then, a culture media was replaced with a serum-free media. Then, each sample was treated onto each cell by concentration. After culturing for 24 hours, an MTT solution was put into each well, reacted for 2 hours under light blocking, a supernatant was removed, a formed formazan was completely dissolved in DMSO, and an absorbance was measured at 540 nm with a microplate reader. In such a case, SDS was used as a positive control group. The test result value was calculated as in Equation 1 below and expressed as the cell viability compared to an untreated group, and was expressed as a mean±standard deviation.
A general note: Tetrazolium dyes change colour on reduction, which living cells bring about.

As usually defined, the cell viability is a read-out of living cells in per cent, often relative to untreated cells. Turning to `COCC(COC)OC1OC(CO)C(O)C(O)C1O` (stereo not drawn) [EPS-S], the inhibition at 10 ppm in data set [1] (Mus musculus, RAW264.7, 24 h, 10 ppm, read-out: PGE2 production inhibitory ability) was found to be 28.3%; in data set [2] (24 h, 10 ppm) it was 6.1%. The inhibition at 100 ppm in data set [1] (Mus musculus, RAW264.7, 24 h, 100 ppm, read-out: PGE2 production inhibitory ability) is 36.5%; in data set [2] (24 h, 100 ppm), 14.2%. Further, the inhibition at 500 ppm in data set [1] (Mus musculus, RAW264.7, 24 h, 500 ppm, read-out: PGE2 production inhibitory ability) stood at 47.2%. Besides, the inhibition at 1000 ppm in data set [1] (Mus musculus, RAW264.7, 24 h, 1,000 ppm, read-out: PGE2 production inhibitory ability) was 94.1%; in data set [2] (24 h, 1,000 ppm), 30.3%. Besides, in the data set on p-IκB, the “p-IκB protein expression rate” value stood at 203.52%. In addition, in the data set with p-IKK, the “p-IKK protein expression rate” value was determined as 514.98%. Further, the “p-NF-κB protein expression rate” value in the data set on p-NF-κB was determined as 185.30%. The inhibition at 1 ppm in data set [2] (24 h, 1 ppm) is -5.66%. Besides, the cell viability was 103.36% and 103.36 ± 0.88% in the data set with RAW264.7 cells (24 h, 1 ppm); 104.47% and 104.47 ± 3.61% in the data set on RAW264.7 cells (24 h, 10 ppm); 108.58% and 108.58 ± 1.99% in the data set with RAW264.7 cells (24 h, 100 ppm); 113.79% and 113.79 ± 0.13% in the data set with RAW264.7 cells (24 h, 1,000 ppm).
`C[C@@H]1C[C@H]2[C@@H]3CCC4=CC(=O)C=C[C@]4(C)[C@@]3(F)[C@@H](O)C[C@]2(C)[C@@]1(O)C(=O)CO` [Dexamethasone]: the “PGE2 production inhibitory ability” value in data set [1] (24 h, 10 Mm (10 μM)) turned out to be 83.55%. Besides, the inhibition at 1 µM in data set [1] (Mus musculus, RAW264.7, 24 h, 1 μM, read-out: PGE2 production inhibitory ability) stood at 62.3%. For the same compound, the inhibition at 5 µM in data set [1] (Mus musculus, RAW264.7, 24 h, 5 μM, read-out: PGE2 production inhibitory ability) was found to be 81.4%. Besides, the inhibition at 20 µM in data set [1] (Mus musculus, RAW264.7, 24 h, 20 μM, read-out: PGE2 production inhibitory ability) turned out to be 86.4%; in data set [2] (24 h, 20 μM), 18%. For the same compound, the inhibition at 80 µM in data set [1] (Mus musculus, RAW264.7, 24 h, 80 μM, read-out: PGE2 production inhibitory ability) worked out at 96.4%; in data set [2] (24 h, 80 μM) it was 33.8%. In data set [2] (24 h, 10 μM), the inhibition at 10 µM was 15.6%. Further, in data set [2] (24 h, 40 μM), the inhibition at 40 µM amounted to 27.6%.
